Test results taken from the OPERA property sets (Mansouri et al. 2018).

Conditions: for log10 BCF / log10 biotransformation half-life (days): fish

SMILES | melting point [°C] | boiling point [°C] | also measured
CC12CCC(C1)C(C)(C)C2=O (configuration not stated) | 5.37 | – | log10 vapour pressure (mmHg): -0.0876
CCCCC(=O)OCC(=O)[C@H]1[C@H](C)C[C@H]2[C@@H]3C[C@H](F)C4=CC(=O)C=C[C@]4(C)[C@@]3(F)[C@@H](O)C[C@@]21C | 195 | – | –
CCCCCC(C)CC (configuration not stated) | -108 | 144 | log10 biodegradation half-life (days): 0.699; log10 vapour pressure (mmHg): 0.796
O=S1CCC1 | 31.5 | – | –
Sc1cccc2ccccc12 | – | 285 | ready biodegradability: not readily biodegradable
CC(C)Nc1ccc(NC(C)C)c2c1C(=O)c1ccccc1C2=O | – | – | ready biodegradability: not readily biodegradable
CC(=O)C(=O)O | 13.8 | – | log10 Henry constant (atm·m³/mol): -8.49; log10 vapour pressure (mmHg): 0.111
CCCCOC(=O)COc1cc(Cl)c(Cl)cc1Cl | 28.5 | – | log10 vapour pressure (mmHg): -4.82
CCCCCCOC(=O)CCCCCCCC(=O)OCCCCCC | -8 | – | –
CCCCCCCCCCCC[N+](C)(C)CCOc1ccccc1.[Br-] | 112 | – | –
CP(C)C | -85 | 37.5 | –
CC(CCC(C)C)=NO | – | 196 | –
CNC(=O)Nc1ccc(Cl)c(Cl)c1 | – | – | log10 Koc (L/kg): 2.46
CCCCCCCCCc1ccc2ccccc2c1 | 12 | 372 | –
CC[Si](Cl)(Cl)CC | -96.5 | – | –
CC1CCNCC1 | – | 130 | –
CCc1cc(CC)c(CC)c(CC)c1CC | – | 277 | –
C=C1N(C)c2ccccc2C1(C)C | – | 248 | –
O=C(O)c1c(Cl)ccc2cc(Cl)cnc12 | 274 | – | –
Nc1c(Br)cc([N+](=O)[O-])cc1[N+](=O)[O-] | 154 | – | –
C/C=C/CO | – | 121 | –
CCC1Nc2cc(Cl)c(S(N)(=O)=O)cc2S(=O)(=O)N1 (configuration not stated) | 270 | – | –

SMILES | melting point [°C] | boiling point [°C] | also measured
CCCCCC(C)O (configuration not stated) | – | 159 | log10 vapour pressure (mmHg): 0.0899
ClC1=C(Cl)C2(Cl)C=CC1(Cl)C2(Cl)Cl | – | – | log10 BCF: 3.81
COc1ccc2[nH]c3c(c2c1)CCNC3C (configuration not stated) | 150 | – | –
Cc1cc([N+](=O)[O-])ccc1Cl | 42.5 | 249 | –
CCCCCC(=O)CCC | – | 188 | –
CCC(=O)C1(c2cccc(O)c2)CCN(C)CC1 | 156 | – | –
CCCCCCCCCCCCCCCCCc1ccccc1 | 32 | 397 | –
CCc1cc(C)cc(C)c1 | -84.3 | 184 | log10 biodegradation half-life (days): 0.301; log10 vapour pressure (mmHg): 0.0133
C=CC(=O)OCCn1c(=O)n(CCOC(=O)C=C)c(=O)n(CCOC(=O)C=C)c1=O | – | – | ready biodegradability: not readily biodegradable
CCCCOC(=O)C(C)Oc1ccc(Oc2ccc(C(F)(F)F)cn2)cc1 (configuration not stated) | 9 | – | log10 Koc (L/kg): 3.62; log10 vapour pressure (mmHg): -6.5
COP(=S)(OC)Oc1ccc(SC)c(C)c1 | 7.5 | – | log10 Koc (L/kg): 3.18; log10 vapour pressure (mmHg): -4.98; log10 BCF: 2.52; log10 biotransformation half-life (days): -0.36
Cc1cc(Cl)ccc1OC(C)C(=O)O (configuration not stated) | 94.5 | 298 | log10 Koc (L/kg): 1.3
CC(=O)O[C@@H]1C[C@]2(O)[C@H](CC[C@]3(C)[C@@H](c4ccc(=O)oc4)CC[C@@]32O)[C@@]2(C)CC[C@H](O[C@@H]3O[C@H](CO)[C@@H](O)[C@H](O)[C@H]3O)C=C12 | 169 | – | –
CC12CCC(C1)C(C)(C)C2O (configuration not stated) | – | – | log10 vapour pressure (mmHg): -1.2
ClC(I)I | -4 | – | –
CCOP(=S)(OCC)Oc1cc(-c2ccccc2)on1 | – | – | log10 BCF: 2.61; log10 biotransformation half-life (days): 1.05
OC(c1ccccc1)(c1ccccc1)C1CCNCC1 | 160 | – | –
C=C(C)CC(C)=O | -72.6 | 124 | log10 vapour pressure (mmHg): 1.18
COC(=O)C(C)C(=O)OC | – | 174 | –
CN(C)CCn1cnc2c1c(=O)n(C)c(=O)n2C | 95 | – | –
CCOC(OCC)OCC | – | 143 | log10 vapour pressure (mmHg): 0.587
CCOC(=O)CCCCCBr | 33 | – | –

SMILES | melting point [°C] | boiling point [°C] | also measured
CC(C)(C)c1ccc(C(C)(C)C)o1 | – | 210 | –
CCCCC(O)(Cn1cncn1)c1ccc(Cl)cc1Cl (configuration not stated) | 111 | – | log10 vapour pressure (mmHg): -6.87
CCC(c1ccccc1)c1c(O)c2ccccc2oc1=O (configuration not stated) | 180 | – | –
COc1cc(S(C)=O)ccc1-c1nc2ncccc2[nH]1 (configuration not stated) | 204 | – | –
CC(CC1CCCCC1)CC1CCCCC1 | 0.6 | 295 | –
c1ccc(N2CN(c3ccccc3)CN(c3ccccc3)C2)cc1 | 144 | – | –
O=C(O)c1cc([N+](=O)[O-])ccc1[N+](=O)[O-] | – | – | log10 Koc (L/kg): 2.3
CC=Cc1cccc(OC)c1O | 81 | 268 | –
Cc1nccnc1C | – | 156 | –
O=C1CCC(=O)N1Cl | 150 | 216 | –
NS(=O)(=O)c1ccc(S(=O)(=O)CCCO)c([N+](=O)[O-])c1 | 169 | – | –
CC1=CCCC1 | -126 | 75.5 | –
CCOC(=O)c1cccnc1 | 8.5 | 224 | –
O=c1ccn([C@@H]2C[C@H](F)[C@@H](CO)O2)c(=O)[nH]1 | 186 | – | –
CC1=NN(c2cc(Cl)c(S(=O)(=O)O)cc2Cl)C(=O)C1 | – | – | ready biodegradability: not readily biodegradable; log10 BCF: 1.51
CCCCN=C=S | – | 168 | –
S=C(Cl)Cl | – | 73 | –
COC(=O)c1ccccc1S(=O)(=O)NC(=O)Nc1nc(C)cc(C)n1 | 204 | – | log10 Koc (L/kg): 1.62
O=P(N1CC1)(N1CC1)N1CC1 | 41 | – | –
CCCSCC | -117 | 119 | log10 vapour pressure (mmHg): 1.27
